The values below come from ChEMBL document CHEMBL5113453, “Design, synthesis, and biological evaluation of a new series of pyrazole derivatives: Discovery of potent and selective JNK3 kinase inhibitors” (Bioorg Med Chem, 2022).

For assay [1], the target named is T1, Mitogen-activated protein kinase 10 (Homo sapiens, UniProt P53779). As to the kind of experiment: Inhibition of JNK3 (unknown origin).
The test system of another assay is HepG2. Description: Antiproliferative activity against human HepG2 cells measured by MTT assay. Format: functional, cell-based. For orientation: Tetrazolium assays rely on reduction of a dye to a coloured formazan, in cell work by metabolically active cells.
The target of assay [2] is T1, Mitogen-activated protein kinase 10. As to the kind of experiment: Inhibition of JNK3 (unknown origin) at 1 uM relative to control.
For another assay, the system named is WI-38. As to the kind of experiment: Antiproliferative activity against human WI-38 cells measured by MTT assay. Format: functional, cell-based.
The next assay relates to HOP-92. As to the kind of experiment: Antiproliferative activity against human HOP-92 cells measured after 48 hrs by SRB assay. Format: functional, cell-based. The following applies: HOP-92, time 48 hrs.
In a further assay the test system is UACC-257. As to the kind of experiment: Antiproliferative activity against human UACC-257 cells measured after 48 hrs by SRB assay. The assay is classed as functional, cell-based. The conditions noted are these: UACC-257, time 48 hrs. A general note: In SRB staining, fixed cells bind dye roughly in proportion to their protein.
For the next assay, the system named is NCI/ADR-RES. As to the kind of experiment: Antiproliferative activity against human NCI-ADR-RES cells measured after 48 hrs by SRB assay. Format: functional, cell-based. The conditions noted are these: time 48 hrs.
Another assay concerns TK-10. As to the kind of experiment: Antiproliferative activity against human TK-10 cells measured after 48 hrs by SRB assay. The conditions noted are these: TK-10, time 48 hrs. The assay is classed as functional, cell-based.
For another assay, the system named is ACHN. Description: Antiproliferative activity against human ACHN cells measured after 48 hrs by SRB assay. Format: functional, cell-based. The following applies: time 48 hrs.
A further assay has as its system IGROV-1. As to the kind of experiment: Antiproliferative activity against human IGROV-1 cells measured after 48 hrs by SRB assay. The assay is classed as functional, cell-based. The following applies: IGROV-1, time 48 hrs.
A further assay relates to MOLT-4. Description: Antiproliferative activity against human MOLT-4 cells measured after 48 hrs by SRB assay. Format: functional, cell-based. The conditions noted are these: MOLT-4, time 48 hrs.
The subject of a further assay is MCF7. As to the kind of experiment: Antiproliferative activity against human MCF7 cells measured after 48 hrs by SRB assay. The following applies: MCF7, time 48 hrs. Format: functional, cell-based.
Another assay relates to NCI-H23. As to the kind of experiment: Antiproliferative activity against human NCI-H23 cells measured after 48 hrs by SRB assay. The assay is classed as functional, cell-based. The following applies: NCI-H23, time 48 hrs.
The test system of another assay is HL-60(TB). Description: Antiproliferative activity against human HL-60(TB) cells measured after 48 hrs by SRB assay. The assay is classed as functional, cell-based. The following applies: HL-60, time 48 hrs.
Assay [3] concerns the target T2, Platelet-derived growth factor receptor alpha (Homo sapiens, UniProt P16234). As to the kind of experiment: Inhibition of PDGFRalpha (unknown origin).
The target in a further assay is Cytochrome P450 3A4 (Homo sapiens, UniProt P08684). As to the kind of experiment: Inhibition of CYP3A4 (unknown origin) using BOMCC as a substrate. Format: ADME.
Assay [4] relates to Serine/threonine-protein kinase B-raf (Homo sapiens), P15056 [V600E]. As to the kind of experiment: Inhibition of B-RAF V600E mutant (unknown origin) at 1 uM relative to control.
Assay [5] concerns the target Voltage-gated inwardly rectifying potassium channel KCNH2 (Homo sapiens, UniProt Q12809). As to the kind of experiment: Inhibition of hERG measured by fluorescence polarization assay. Background: Block of hERG is tested as a sign of cardiac risk.
Assay [6] deals with T2, Platelet-derived growth factor receptor alpha. Description: Inhibition of PDGFRalpha (unknown origin) at 1 uM relative to control.
Another assay addresses Cytochrome P450 2D6 (Homo sapiens, UniProt P10635). Description: Inhibition of CYP2D6 (unknown origin) using EOMCC as a substrate. Format: ADME.
The target of assay [7] is T1, Mitogen-activated protein kinase 10. Description: Inhibition of JNK3 in human HEK293 cells transfected with JNK3-NanoLuc fusion vector measured after 1 hr by NanoBRET assay. The assay is classed as cell-based.
Another assay is filed under the species Homo sapiens. Description: RatioIC50 for inhibition of […] (unknown origin).

T1 sequence (P53779 whole entry): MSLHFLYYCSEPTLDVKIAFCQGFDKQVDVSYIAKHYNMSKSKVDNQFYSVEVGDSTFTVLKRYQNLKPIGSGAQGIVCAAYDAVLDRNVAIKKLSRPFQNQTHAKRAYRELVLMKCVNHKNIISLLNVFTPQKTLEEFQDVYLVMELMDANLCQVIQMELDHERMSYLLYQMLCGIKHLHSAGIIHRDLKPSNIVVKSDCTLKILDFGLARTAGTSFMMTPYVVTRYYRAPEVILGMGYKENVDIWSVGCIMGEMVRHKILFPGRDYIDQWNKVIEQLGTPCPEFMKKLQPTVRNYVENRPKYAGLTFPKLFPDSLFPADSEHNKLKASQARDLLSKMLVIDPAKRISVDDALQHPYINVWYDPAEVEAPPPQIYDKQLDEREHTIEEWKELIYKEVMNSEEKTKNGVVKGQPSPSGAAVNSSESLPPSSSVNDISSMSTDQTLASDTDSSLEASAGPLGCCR
T2 sequence (P16234 whole entry): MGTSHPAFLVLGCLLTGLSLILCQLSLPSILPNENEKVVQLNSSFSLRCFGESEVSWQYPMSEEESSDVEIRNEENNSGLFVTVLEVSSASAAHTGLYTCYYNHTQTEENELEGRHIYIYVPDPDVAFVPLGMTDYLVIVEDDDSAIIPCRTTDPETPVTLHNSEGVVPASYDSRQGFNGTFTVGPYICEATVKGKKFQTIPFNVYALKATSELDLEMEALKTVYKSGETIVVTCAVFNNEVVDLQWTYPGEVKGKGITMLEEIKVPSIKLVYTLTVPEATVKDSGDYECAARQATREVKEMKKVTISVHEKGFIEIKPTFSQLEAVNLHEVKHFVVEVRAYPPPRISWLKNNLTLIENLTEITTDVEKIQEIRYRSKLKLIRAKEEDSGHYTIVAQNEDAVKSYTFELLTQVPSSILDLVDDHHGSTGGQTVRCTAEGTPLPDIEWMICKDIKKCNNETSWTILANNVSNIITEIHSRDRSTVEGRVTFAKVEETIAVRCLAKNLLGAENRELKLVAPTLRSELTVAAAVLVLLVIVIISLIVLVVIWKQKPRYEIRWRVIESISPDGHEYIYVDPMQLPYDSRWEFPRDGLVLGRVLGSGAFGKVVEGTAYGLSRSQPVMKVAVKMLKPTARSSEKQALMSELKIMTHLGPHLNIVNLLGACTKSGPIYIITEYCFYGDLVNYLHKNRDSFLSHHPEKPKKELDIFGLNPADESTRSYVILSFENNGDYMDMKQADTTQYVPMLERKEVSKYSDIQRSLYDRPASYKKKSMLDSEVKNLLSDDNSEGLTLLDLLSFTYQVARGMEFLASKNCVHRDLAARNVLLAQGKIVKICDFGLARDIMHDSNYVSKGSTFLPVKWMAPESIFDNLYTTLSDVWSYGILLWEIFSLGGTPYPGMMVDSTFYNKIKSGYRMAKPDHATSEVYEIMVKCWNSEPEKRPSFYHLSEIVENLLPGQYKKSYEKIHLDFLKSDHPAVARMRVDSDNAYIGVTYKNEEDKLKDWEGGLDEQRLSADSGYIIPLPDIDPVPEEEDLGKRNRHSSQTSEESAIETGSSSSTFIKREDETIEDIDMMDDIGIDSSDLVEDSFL
Sequence of Serine/threonine-protein kinase B-raf (Homo sapiens), P15056 [V600E] (P15056 whole entry V600E): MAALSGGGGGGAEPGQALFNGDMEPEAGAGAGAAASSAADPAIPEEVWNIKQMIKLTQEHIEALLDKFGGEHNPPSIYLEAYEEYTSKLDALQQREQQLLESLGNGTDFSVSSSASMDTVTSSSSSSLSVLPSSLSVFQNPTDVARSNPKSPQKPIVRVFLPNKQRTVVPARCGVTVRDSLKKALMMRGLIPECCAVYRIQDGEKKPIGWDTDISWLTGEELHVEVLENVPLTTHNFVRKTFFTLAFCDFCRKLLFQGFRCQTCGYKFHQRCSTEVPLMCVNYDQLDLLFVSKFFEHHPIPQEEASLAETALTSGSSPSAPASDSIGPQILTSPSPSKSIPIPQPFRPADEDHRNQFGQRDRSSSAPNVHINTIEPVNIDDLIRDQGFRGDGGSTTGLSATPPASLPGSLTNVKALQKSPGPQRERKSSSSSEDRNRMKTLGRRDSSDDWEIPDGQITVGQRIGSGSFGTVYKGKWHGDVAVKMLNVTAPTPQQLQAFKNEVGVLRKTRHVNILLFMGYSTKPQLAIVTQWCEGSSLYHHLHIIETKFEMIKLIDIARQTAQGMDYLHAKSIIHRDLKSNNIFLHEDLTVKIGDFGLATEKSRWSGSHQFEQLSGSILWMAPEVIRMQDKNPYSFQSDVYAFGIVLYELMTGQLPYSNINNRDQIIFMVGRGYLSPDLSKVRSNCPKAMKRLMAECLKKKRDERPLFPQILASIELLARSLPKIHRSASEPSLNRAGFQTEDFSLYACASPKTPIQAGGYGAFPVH
Sequence of Cytochrome P450 3A4 (P08684 whole entry): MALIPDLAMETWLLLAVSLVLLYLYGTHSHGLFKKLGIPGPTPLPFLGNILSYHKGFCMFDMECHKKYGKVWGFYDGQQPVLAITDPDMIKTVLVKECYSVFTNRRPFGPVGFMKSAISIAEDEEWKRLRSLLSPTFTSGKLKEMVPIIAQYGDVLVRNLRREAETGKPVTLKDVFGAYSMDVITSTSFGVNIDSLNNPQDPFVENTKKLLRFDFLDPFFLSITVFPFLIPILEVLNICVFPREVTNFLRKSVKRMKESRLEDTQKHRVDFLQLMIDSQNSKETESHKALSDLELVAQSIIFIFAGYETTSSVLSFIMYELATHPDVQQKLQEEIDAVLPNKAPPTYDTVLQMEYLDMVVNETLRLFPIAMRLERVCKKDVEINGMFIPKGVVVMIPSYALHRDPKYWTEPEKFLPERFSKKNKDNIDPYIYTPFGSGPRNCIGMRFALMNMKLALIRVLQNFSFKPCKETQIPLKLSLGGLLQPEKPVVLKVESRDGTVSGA
Sequence of Voltage-gated inwardly rectifying potassium channel KCNH2 (Q12809 whole entry): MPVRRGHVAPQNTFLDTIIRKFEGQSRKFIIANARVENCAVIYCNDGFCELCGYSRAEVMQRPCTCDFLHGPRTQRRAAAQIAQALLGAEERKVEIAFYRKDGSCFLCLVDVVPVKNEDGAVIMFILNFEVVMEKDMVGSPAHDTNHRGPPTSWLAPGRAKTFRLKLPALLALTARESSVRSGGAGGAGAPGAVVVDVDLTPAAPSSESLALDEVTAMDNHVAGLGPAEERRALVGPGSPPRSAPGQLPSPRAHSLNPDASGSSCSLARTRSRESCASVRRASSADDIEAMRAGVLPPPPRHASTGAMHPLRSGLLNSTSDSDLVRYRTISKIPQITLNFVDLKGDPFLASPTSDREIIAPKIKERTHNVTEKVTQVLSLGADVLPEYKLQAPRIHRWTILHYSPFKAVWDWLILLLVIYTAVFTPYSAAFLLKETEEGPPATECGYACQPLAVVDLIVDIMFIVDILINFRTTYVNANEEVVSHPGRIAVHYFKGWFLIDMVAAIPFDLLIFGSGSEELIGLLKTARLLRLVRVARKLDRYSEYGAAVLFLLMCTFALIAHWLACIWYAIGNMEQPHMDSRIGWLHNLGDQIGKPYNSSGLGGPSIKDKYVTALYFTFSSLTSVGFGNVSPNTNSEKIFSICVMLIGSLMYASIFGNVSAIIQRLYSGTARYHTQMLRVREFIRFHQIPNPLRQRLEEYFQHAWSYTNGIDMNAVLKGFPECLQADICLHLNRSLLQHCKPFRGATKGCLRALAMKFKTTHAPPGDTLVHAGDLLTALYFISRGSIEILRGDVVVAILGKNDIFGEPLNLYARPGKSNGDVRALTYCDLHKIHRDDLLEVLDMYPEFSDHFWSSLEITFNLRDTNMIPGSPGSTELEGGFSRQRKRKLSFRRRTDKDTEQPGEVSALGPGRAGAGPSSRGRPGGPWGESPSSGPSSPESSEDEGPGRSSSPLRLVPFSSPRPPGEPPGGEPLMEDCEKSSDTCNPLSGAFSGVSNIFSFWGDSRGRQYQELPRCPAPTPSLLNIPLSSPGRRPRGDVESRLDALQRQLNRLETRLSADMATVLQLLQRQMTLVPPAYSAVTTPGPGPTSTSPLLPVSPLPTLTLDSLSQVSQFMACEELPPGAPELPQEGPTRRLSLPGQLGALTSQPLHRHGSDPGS
Sequence of Cytochrome P450 2D6 (P10635 whole entry, the tested form may be a part): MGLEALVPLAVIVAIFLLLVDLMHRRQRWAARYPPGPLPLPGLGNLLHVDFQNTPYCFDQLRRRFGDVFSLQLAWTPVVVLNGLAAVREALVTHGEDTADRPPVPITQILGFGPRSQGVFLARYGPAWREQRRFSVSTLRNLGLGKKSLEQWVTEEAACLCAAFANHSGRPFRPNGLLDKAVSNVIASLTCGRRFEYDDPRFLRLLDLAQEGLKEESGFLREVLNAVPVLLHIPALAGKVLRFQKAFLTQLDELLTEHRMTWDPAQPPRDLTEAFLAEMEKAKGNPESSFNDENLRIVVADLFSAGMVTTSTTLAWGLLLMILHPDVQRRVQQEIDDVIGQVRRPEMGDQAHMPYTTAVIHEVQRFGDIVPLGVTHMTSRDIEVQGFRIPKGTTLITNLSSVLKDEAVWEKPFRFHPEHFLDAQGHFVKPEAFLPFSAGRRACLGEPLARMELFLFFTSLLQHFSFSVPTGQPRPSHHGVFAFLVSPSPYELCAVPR

Turning to `O=C(NCCNc1cc(-c2cn(-c3ccccc3)nc2-c2cccc(O)c2)ccn1)Nc1ccc(Cl)c(Cl)c1`, the half-maximal inhibitory concentration (IC50) in assay [1] is 0.526 µM; with HepG2 it was 2.84 µM; in the assay with WI-38 it was 17.4 µM. Also, in [2], the inhibition came to 69%.
`O=C(Nc1cc(C(F)(F)F)cc(C(F)(F)F)c1)N1CCN(c2cc(-c3cn(-c4ccccc4)nc3-c3cccc(O)c3)ccn2)CC1` showed an IC50 in [1] above 1 µM. This molecule also returned an inhibition in assay [2] of 1%.
The molecule `COc1cccc(-c2nn(-c3ccccc3)cc2-c2ccnc(N3CCN(C(=O)Nc4ccc(Cl)c(Cl)c4)CC3)c2)c1` returned a half-inhibitory concentration (IC50) in assay [1] above 1 µM. Further, the inhibition in [2] was 4%.
Molecule `COc1cccc(-c2nn(-c3ccccc3)cc2-c2ccnc(N3CCN(C(=O)Nc4ccc(Cl)c(C(F)(F)F)c4)CC3)c2)c1` had an IC50 in assay [1] above 1 µM. The inhibition in assay [2] is 7%.
The matching figures for `COc1cccc(-c2nn(-c3ccccc3)cc2-c2ccnc(N3CCN(C(=O)Nc4cccc(C(F)(F)F)c4)CC3)c2)c1`: above 1 µM and 10%.
`O=C(NCCNc1cc(-c2cn(-c3ccccc3)nc2-c2cccc(O)c2)ccn1)Nc1ccc(Cl)c(C(F)(F)F)c1`: in [1], the half-inhibitory concentration (IC50) was above 1 µM. The inhibition in assay [2] was 38%.
Regarding `O=C(Nc1ccc(F)cc1)N1CCN(c2cc(-c3cn(-c4ccccc4)nc3-c3cccc(O)c3)ccn2)CC1`, in assay [1], the half-inhibitory concentration (IC50) was above 1 µM. This molecule also showed an inhibition in [2] of 8%.
As for `CNC(=O)c1cc(Oc2ccc(NC(=O)Nc3ccc(Cl)c(C(F)(F)F)c3)cc2)ccn1` [SORAFENIB], the TGI was found to be 5.01 µM with HOP-92; 5.01 µM with UACC-257; 7.94 µM with NCI/ADR-RES; 10 µM in the assay on TK-10; 10 µM with ACHN; 10 µM in the assay with IGROV-1. Besides, the concentration for total growth inhibition (TGI) with MOLT-4 was 100 µM; in the assay with MCF7, 7.94 µM; in the assay on NCI-H23 it was 5.01 µM; in the assay on HL-60(TB) it was 100 µM. In addition, half-maximal inhibition with WI-38 (IC50) was put at 14.7 µM.
`O=C(Nc1ccc(Cl)c(Cl)c1)N1CCN(c2cc(-c3cn(-c4ccccc4)nc3-c3cccc(O)c3)ccn2)CC1`: the half-inhibitory concentration (IC50) in [1] is above 1 µM. In assay [2], this molecule came in with an inhibition of 3%.
In the case of `O=C(NCCNc1cc(-c2cn(-c3ccccc3)nc2-c2cccc(O)c2)ccn1)Nc1cccc(C(F)(F)F)c1`, the IC50 in assay [3] was 1 µM; on Cytochrome P450 3A4, 20.5 µM; in [1], 0.099 µM; in [5], above 50 µM; in the assay with HepG2, 1.56 µM; against Cytochrome P450 2D6, 6.24 µM. Also, the IC50 in assay [7] amounted to 3.92 µM; in the assay with WI-38, 18.5 µM. Also, the inhibition in [4] was determined as 9%; in assay [6], 50%; in [2], 84%. The Ratio IC50 in the assay filed under Homo sapiens came out at 10.1.
As to `O=C(NCCNc1cc(-c2cn(-c3ccccc3)nc2-c2cccc(O)c2)ccn1)Nc1cc(C(F)(F)F)cc(C(F)(F)F)c1`, in assay [1], the IC50 is above 1 µM. This molecule also showed an inhibition in assay [2] of 19%.
In assay [1], `O=C(Nc1ccccc1)N1CCN(c2cc(-c3cn(-c4ccccc4)nc3-c3cccc(O)c3)ccn2)CC1` came in with an IC50 above 1 µM. Moreover, the inhibition in assay [2] is 6%.
The matching figures for `COc1cccc(-c2nn(-c3ccccc3)cc2-c2ccnc(N3CCN(C(=O)Nc4ccccc4)CC3)c2)c1`: above 1 µM and 8%.
The matching figures for `O=C(NCCCNc1cc(-c2cn(-c3ccccc3)nc2-c2cccc(O)c2)ccn1)Nc1ccc(Cl)c(C(F)(F)F)c1`: 0.614 µM and 63%.
`COc1cccc(-c2nn(-c3ccccc3)cc2-c2ccnc(N3CCN(C(=O)Nc4ccc(F)cc4)CC3)c2)c1`: the IC50 in assay [1] was above 1 µM. This molecule also returned an inhibition in assay [2] of 0%.
The molecule `O=C(Nc1cccc(C(F)(F)F)c1)N1CCN(c2cc(-c3cn(-c4ccccc4)nc3-c3cccc(O)c3)ccn2)CC1` registered an IC50 in assay [1] above 1 µM. In assay [2], this molecule yielded an inhibition of 17%.
Consider `O=C(NCCCNc1cc(-c2cn(-c3ccccc3)nc2-c2cccc(O)c2)ccn1)Nc1cc(C(F)(F)F)cc(C(F)(F)F)c1`, for which, in assay [1], the IC50 was above 1 µM. The same molecule came in with an inhibition in assay [2] of 0%.
On to `O=C(NCCCNc1cc(-c2cn(-c3ccccc3)nc2-c2cccc(O)c2)ccn1)Nc1ccc(Cl)c(Cl)c1`, for which, in assay [1], the IC50 is above 1 µM. Moreover, in assay [2], the inhibition is 13%.
Consider `O=C(NCCNc1cc(-c2cn(-c3ccccc3)nc2-c2cccc(O)c2)ccn1)Nc1ccc(F)cc1`, for which, in assay [1], the IC50 came to 0.189 µM. In [2], this molecule displayed an inhibition of 83%.
The matching figures for `COc1cccc(-c2nn(-c3ccccc3)cc2-c2ccnc(N3CCN(C(=O)Nc4cc(C(F)(F)F)cc(C(F)(F)F)c4)CC3)c2)c1`: above 1 µM and 9%.

By IC50 is commonly meant the concentration that gives 50% inhibition. A word on the inhibition: it is the drop in the measured response relative to a control, in per cent. A higher inhibition goes with a response far below the control. In general, TGI refers to the concentration at which net growth stops. Higher therefore signals less potent growth arrest.
